# Starred links: 1 amine or outer side, 2 acyl side, 3 side chain; linkers in the order of their positions; H or OH if unused. Positions of bridges follow the written chain, without caps; N, C: chain ends. Non-standard residues stand in square brackets, D forms with d. Residues, ends and D or L forms follow the SMILES beside them. dAbu(3S-yl) = C[C@@H]([C@@H](N[*:1])C(=O)[*:2])[*:3]; Dhb = C/C=C(\N)C(=O)O
# Tests used:
# Lyticase = assay: Enzyme stability (residual inhibitory activity)
# Protocol: (§3) Specific enzymatic effects of denaturation on salivaricin 9 were tested using two wells of 6mm diameter each separated by a distance of 4 mm in CAB plates. One well was filled with 50µl of pure salivaricin 9 while the other was filled with 50µl of the tested enzyme. The plate was incubated at 50°C for 2 hours and then incubated at 37°C overnight before seeding the indicator strain onto the agar surface using a cotton swab. Then the plate was re-incubated at 37°C for 18 hours and the zones of inhibitions that appeared indicated residual activity of salivaricin 9 while absence of inhibition zones indicated the denaturation of the antimicrobial peptide by the applied enzymes namely proteinase K, peptidase, lyticase and catalase.
# [1] = system: S. salivarius strain YU10; assay: Salivaricin induction assay, strain YU10; assay type: cell-based, Streptococcus salivarius; conditions: 0.05 ml test sample (titre 4 AU/ml) added to washed cells in M17YESUCa, 18 h anaerobic; well diffusion assay, induced vs control tube
# Text: (§1) The bacteriocin-inducing activities present in crude extracts of S. salivarius strains NU10, YU10, K12 and in FPLC-purified salivaricin 9 peptide fractions having anti-Micrococcus luteus activity was investigated in this study. The crude extracts of producer cells designated as BLIS-NU10, BLIS-YU10 and BLIS-K12 were isolated by acidic methanol extraction of the producer cells as described previously. These crude BLIS extracts had the potential to contain at least two lantibiotics on the basis of PCR assessment for their content of lantibiotic structural genes. Strains NU10 and YU10 had the structural genes for salivaricin 9 and salivaricin A and strain K12 had salivaricin A and salivaricin B structural genes. […] Colonies from an 18 h culture of each S. salivarius strain NU10, YU10 and K12 grown anaerobically on BACa agar was used to inoculate 10 ml of M17YESUCa broth and incubated again under the same conditions. The cells were then collected by centrifugation at 18000 x g for 5 min and washed three times in saline buffer to reduce the levels of cell surface-associated lantibiotic before suspending in 10 ml of the same buffer. […] Induction of salivaricin 9 or salivaricin A production was recorded as inhibitory zones surrounding samples from the induced tubes but not the control tubes. […]
# [2] = system: Micrococcus luteus ATCC10240; assay: Flow cytometry analysis of membrane disruption (propidium iodide); assay type: cell-based; conditions: PI 25 µM, 30 minutes at 37°C
# Protocol: For membrane integrity assay using the dye propidium iodide (PI), cultures of Micrococcus luteus ATCC10240 were grown over night at 37°C in THB supplemented with 0.5% glucose (THBG) and then diluted with fresh THBG to an OD600 of 0.1. The cells were centrifuged at 4000 x g for 5 minutes at 4°C and washed twice with washing buffer (2 mM HEPES + 2 mM glucose) before re-suspending in the same buffer and adjusting to OD600 0.1. The cells were exposed to salivaricin 9 (12, 20 µg/ml) or nisin (20 µg/ml) (Sigma) and PI (final concentration 25 µM) before incubating for 30 minutes at 37°C. Nuclease-Free Water (Promega, USA) was added instead of antibiotic and served as a negative control. Samples were analyzed using BD FACSCanto^TM II flow cytometer using excitation at 488 nm and with the standard filter setup. Each sample was examined in triplicate and the geometric mean fluorescence intensity (MFI) of gated cell populations was calculated (Figure 9).
# Proteinase = assay: Enzyme stability (residual inhibitory activity); assay type: physicochemical; conditions: Proteinase 1 mg.ml^-1; adjacent wells, 50 µl each; 50°C 2 hours then 37°C overnight; indicator Micrococcus luteus; titre 800 AU/ml
# Protocol: as §3
# [3] = system: S. salivarius strain NU10; assay: Salivaricin induction assay, strain NU10; assay type: cell-based, Streptococcus salivarius; conditions: 0.05 ml test sample (titre 4 AU/ml) added to washed cells in M17YESUCa, 18 h anaerobic; well diffusion assay, induced vs control tube
# Text: as §1
# Micrococcus luteus [4] = assay: Heat stability (residual inhibitory activity); assay type: physicochemical; conditions: for Inhibition zone after heat treatment: indicator Micrococcus luteus, titre 800 AU/ml
# Protocol: (§4) Heat stability was studied by exposing pure salivaricin 9 to different temperatures for one hour after which the sample was centrifuged and the supernatant tested for inhibitory activity. The stability of the peptide at different pH values was also evaluated and tested for inhibitory activity. Specific enzymatic effects of denaturation on salivaricin 9 were tested using two wells of 6mm diameter each separated by a distance of 4 mm in CAB plates. One well was filled with 50µl of pure salivaricin 9 while the other was filled with 50µl of the tested enzyme. The plate was incubated at 50°C for 2 hours and then incubated at 37°C overnight before seeding the indicator strain onto the agar surface using a cotton swab. Then the plate was re-incubated at 37°C for 18 hours and the zones of inhibitions that appeared indicated residual activity of salivaricin 9 while absence of inhibition zones indicated the denaturation of the antimicrobial peptide by the applied enzymes namely proteinase K, peptidase, lyticase and catalase. The stability of salivaricin 9 to treatment with the chemicals EDTA, SDS, urea, NaCl and β-mercaptoethanol was examined by adding 1% of these chemicals to the bacteriocin followed by incubation for two hours at RT before the samples were centrifuged and the supernatant tested as mentioned above. If the chemical was a solvent such as β-mercaptoethanol, then the solvent was evaporated before testing for antimicrobial activity (Table 4).
# [5] = system: Lactococcus lactis strain ATCC11454; assay: Induction assay, nisin-producing strain ATCC11454; assay type: cell-based; conditions: 0.05 ml test sample, 18 h, well diffusion assay
# [6] = system: Bacillus cereus ATCC14579; assay: Minimal inhibitory concentration (NCCLS); assay type: cell-based; design: key: ++++: inhibition zone >12 mm; +++: inhibition zone = 10 mm; ++: inhibition zone < 5 mm; -: No inhibition; conditions: pure salivaricin 9, NCCLS method
# Protocol: (§2) An induced culture of S. salivarius NU10 was centrifuged at 8000 x g to pellet the cells. The cell free supernatant (CFS) was filtered through 0.2 µm sterilized cellulose membrane (Millipore) to ensure that all cell debris was removed. The filtered crude bacteriocin preparation was passed through 100 ml XAD-16 particles (Sigma) packed in a glass column. The column was washed with 400 ml of distilled water followed by 200 ml of 70% methanol before the active fraction was eluted using 200 ml of 95% methanol (adjusted to pH 2) at a flow rate of 15 ml/min. The methanol was removed using a rotary evaporator and the resulting peptide preparation was lyophilized and stored at -20°C. The lyophilized peptide pellets were dissolved in 20 mM sodium phosphate pH 5.8 (binding buffer). Then the sample was injected into a fast protein liquid chromatography (FPLC) system (ÄKTA Purifier™) using HiTrap SP FF 5ml strong cation exchanger column (GE Healthcare) equilibrated with the same buffer at a flow rate of 1 ml/min. Then the column was washed with 10X column volume of the binding buffer before salivaricin 9 was eluted using a linear gradient of 0 to 1M NaCl in 20 mM sodium phosphate buffer at pH 5.8 (Figure 4). All fractions were tested for inhibitory activity using Micrococcus luteus as the indicator. MIC values of pure salivaricin 9 against a set of bacterial indicator strains were determined by following the National Committee for Clinical Laboratory Standards (NCCLS) (Table 3).
# [7] = system: Haemophilus parainfluenza TONEJ11; assay: Minimal inhibitory concentration (NCCLS); assay type: cell-based; design: key: ++++: inhibition zone >12 mm; +++: inhibition zone = 10 mm; ++: inhibition zone < 5 mm; -: No inhibition; conditions: pure salivaricin 9, NCCLS method
# Protocol: as §2
# [8] = system: Streptococcus mutans GEJ11; assay: Minimal inhibitory concentration (NCCLS); assay type: cell-based; design: key: ++++: inhibition zone >12 mm; +++: inhibition zone = 10 mm; ++: inhibition zone < 5 mm; -: No inhibition; conditions: pure salivaricin 9, NCCLS method
# Protocol: as §2
# [9] = system: Staphylococcus aureus RF122; assay: Minimal inhibitory concentration (NCCLS); assay type: cell-based; design: key: ++++: inhibition zone >12 mm; +++: inhibition zone = 10 mm; ++: inhibition zone < 5 mm; -: No inhibition; conditions: pure salivaricin 9, NCCLS method
# Protocol: as §2
# [10] = system: Actinomyces naeslundii TG2; assay: Minimal inhibitory concentration (NCCLS); assay type: cell-based; design: key: ++++: inhibition zone >12 mm; +++: inhibition zone = 10 mm; ++: inhibition zone < 5 mm; -: No inhibition; conditions: pure salivaricin 9, NCCLS method
# Protocol: as §2
# Proteinase K = Proteinase K (Parengyodontium album, UniProt P06873); assay: Enzyme stability (residual inhibitory activity)
# Proteinase K, sequence (P06873 106-384): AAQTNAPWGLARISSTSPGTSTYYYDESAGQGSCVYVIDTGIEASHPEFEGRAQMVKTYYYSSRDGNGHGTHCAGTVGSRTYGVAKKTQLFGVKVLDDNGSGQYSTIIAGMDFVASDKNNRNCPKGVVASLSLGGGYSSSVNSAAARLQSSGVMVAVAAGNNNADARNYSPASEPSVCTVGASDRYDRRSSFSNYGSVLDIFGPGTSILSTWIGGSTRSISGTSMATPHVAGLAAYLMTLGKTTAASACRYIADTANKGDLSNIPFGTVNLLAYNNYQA
# Protocol: (§5) Heat stability was studied by exposing pure salivaricin 9 to different temperatures for one hour after which the sample was centrifuged and the supernatant tested for inhibitory activity. The stability of the peptide at different pH values was also evaluated and tested for inhibitory activity. Specific enzymatic effects of denaturation on salivaricin 9 were tested using two wells of 6mm diameter each separated by a distance of 4 mm in CAB plates. One well was filled with 50µl of pure salivaricin 9 while the other was filled with 50µl of the tested enzyme. The plate was incubated at 50°C for 2 hours and then incubated at 37°C overnight before seeding the indicator strain onto the agar surface using a cotton swab. Then the plate was re-incubated at 37°C for 18 hours and the zones of inhibitions that appeared indicated residual activity of salivaricin 9 while absence of inhibition zones indicated the denaturation of the antimicrobial peptide by the applied enzymes namely proteinase K, peptidase, lyticase and catalase. The stability of salivaricin 9 to treatment with the chemicals EDTA, SDS, urea, NaCl and β-mercaptoethanol was examined by adding 1% of these chemicals to the bacteriocin followed by incubation for two hours at RT before the samples were centrifuged and the supernatant tested as mentioned above. […]
# Micrococcus luteus [11] = assay: pH stability (residual inhibitory activity); assay type: physicochemical; conditions: for Inhibition zone after pH exposure: indicator Micrococcus luteus, titre 800 AU/ml
# Protocol: as §4
# S. salivarius strain K12 = assay: Salivaricin induction assay, strain K12; assay type: cell-based, Streptococcus salivarius; conditions: 0.05 ml test sample (titre 4 AU/ml) added to washed cells in M17YESUCa, 18 h anaerobic; well diffusion assay, induced vs control tube
# Text: as §1
# [12] = system: Streptococcus pyogenes ATCC12344; assay: Minimal inhibitory concentration (NCCLS); assay type: cell-based; conditions: pure salivaricin 9, NCCLS method
# Protocol: as §2, with “All fractions were tested for inhibitory activity using Micrococcus luteus as the indicator.” left out
# Micrococcus luteus [13] = assay: Mode of action, addition to growing culture (OD600); assay type: cell-based; conditions: added to different growth phases of Micrococcus luteus culture
# Protocol: When added to different growth phases of Micrococcus luteus culture, salivaricin 9 induced cell lysis.
# Figure 7 Bactericidal mode of action of salivaricin 9. Salivaricin 9 was added to different phases of bacterial growth. […] The sensitive bacteria Micrococcus luteus lost the ability to grow again after salivaricin 9 was added.
# Catalase = assay: Enzyme stability (residual inhibitory activity)
# Protocol: as §3
# Micrococcus luteus [14] = assay: Stability to detergents / chemicals (residual inhibitory activity); assay type: physicochemical; conditions: two hours at RT, indicator Micrococcus luteus, titre 800 AU/ml
# Protocol: as §4
# Protocol for Peptidase: as §5
compound,measurement,setting,value
"C/C=C1\NC(=O)[C@H](Cc2c[nH]c3ccccc23)NC(=O)[C@@H]2NC(=O)[C@H](C)NC(=O)[C@H](CC(C)C)NC(=O)[C@H](CC(N)=O)NC(=O)[C@@H]3CS[C@@H](C)[C@@H](NC(=O)[C@H](CC(C)C)NC(=O)[C@@H](NC(=O)[C@@H](NC(=O)CNC(=O)[C@H](CC(N)=O)NC(=O)CN)C(C)C)C(C)C)C(=O)N[C@@H](CC(C)C)C(=O)N[C@@H](C(=O)N[C@@H](Cc4c[nH]cn4)C(=O)N[C@@H](CCC(=O)O)C(=O)N3)[C@H](C)SC[C@H](NC(=O)[C@H](CCCCN)NC(=O)[C@H](CC(C)C)NC(=O)[C@H](CCCCN)NC(=O)[C@H](CCCCN)NC1=O)C(=O)N[C@H](C(=O)O)CS[C@H]2C [Salivaricin 9] (H-GNGVVL[dAbu(3S-yl)]L[dAbu(3S-yl)]HECNLA[dAbu(3S-yl)]W[Dhb]KKLKCC-OH; thioether 7-12, 9-23, 16-24; N-terminus and C-terminus assumed)",Inhibition zone after enzyme treatment,"Lyticase; Lyticase 1 mg.ml^-1, adjacent wells, 50 µl each, 50°C 2 hours then 37°C overnight, indicator Micrococcus luteus, titre 800 AU/ml",++++ (inhibition zone >20 mm)
same,Antimicrobial activity after enzyme treatment (in words),Lyticase; treated with lyticase,remained active
same,Preparation induces inhibitor production in YU10,[1],Yes
same,"Propidium iodide uptake, geometric mean fluorescence intensity (MFI)",[2]; 4 µg/ml (MIC),did not show significant increase in the MFI
same,"Propidium iodide uptake, geometric mean fluorescence intensity (MFI)","[2]; 12 µg/ml (3-fold MIC), triplicate",significant MFI increments
same,"Propidium iodide uptake, geometric mean fluorescence intensity (MFI)","[2]; 20 µg/ml, triplicate",significant MFI increments
same,Inhibition zone after enzyme treatment,"Peptidase; Peptidase 1 mg.ml^-1, adjacent wells, 50 µl each, 50°C 2 hours then 37°C overnight, indicator Micrococcus luteus, titre 800 AU/ml",-
same,Antimicrobial activity after enzyme treatment (in words),Peptidase; treated with peptidase,lost all antimicrobial activity
same,Inhibition zone after enzyme treatment,Proteinase,-
same,Preparation induces inhibitor production in NU10,[3],Yes
same,Inhibition zone after heat treatment,"Micrococcus luteus [4]; 4, 20, 30, 37, 40, 50, 60, 70, 80 °C for 1 hour",++++ (inhibition zone >20 mm)
same,Inhibition zone after heat treatment,"Micrococcus luteus [4]; 90, 100 °C for 30 min",+++ (inhibition zone =20 mm)
same,Biological stability at high temperature (in words),Micrococcus luteus [4]; 90-100°C for 30 minutes,retained biological stability
same,Inhibition zone after heat treatment,Micrococcus luteus [4]; 121 °C for 20 min,-
same,Preparation induces inhibitor production in ATCC11454,[5],No
same,MIC of salivaricin 9,[6],-
same,MIC of salivaricin 9,[7],-
same,MIC of salivaricin 9,[8],-
same,MIC of salivaricin 9,[9],-
same,MIC of salivaricin 9,[10],-
same,Inhibition zone after enzyme treatment,"Proteinase K; Proteinase K 1 mg.ml^-1, adjacent wells, 50 µl each, 50°C 2 hours then 37°C overnight, indicator Micrococcus luteus, titre 800 AU/ml",-
same,Antimicrobial activity after enzyme treatment (in words),Proteinase K; treated with proteinase K,lost all antimicrobial activity
same,Inhibition zone after pH exposure,Micrococcus luteus [11]; pH 2- 7,++++ (inhibition zone >20 mm)
same,Inhibition zone after pH exposure,Micrococcus luteus [11]; pH 8-10,+++ (inhibition zone =20 mm)
same,Inhibition zone after pH exposure,Micrococcus luteus [11]; pH 11-12,-
same,Antimicrobial activity after pH exposure (in words),Micrococcus luteus [11]; pH range of 2 to 10,retained
same,Preparation induces inhibitor production in K12,S. salivarius strain K12,No
same,MIC of salivaricin 9,[12],32 µg/mL
same,Mode of action (OD600 after addition to culture),Micrococcus luteus [13],bactericidal and bacteriolytic
same,Inhibition zone after enzyme treatment,"Catalase; Catalase 1 mg.ml^-1, adjacent wells, 50 µl each, 50°C 2 hours then 37°C overnight, indicator Micrococcus luteus, titre 800 AU/ml",++++ (inhibition zone >20 mm)
same,Antimicrobial activity after enzyme treatment (in words),Catalase; treated with catalase,remained active
same,Inhibition zone after detergent / chemical treatment,Micrococcus luteus [14]; EDTA 1% (w/v),++++ (inhibition zone >20 mm)
same,Inhibition zone after detergent / chemical treatment,Micrococcus luteus [14]; NaCl 1% (w/v),++++ (inhibition zone >20 mm)
same,Inhibition zone after detergent / chemical treatment,Micrococcus luteus [14]; SDS 1% (w/v),++++ (inhibition zone >20 mm)
same,Inhibition zone after detergent / chemical treatment,Micrococcus luteus [14]; Tritone X100 1% (w/v),++ (inhibition zone < 20 mm)
same,Inhibition zone after detergent / chemical treatment,Micrococcus luteus [14]; Tween 20 1% (w/v),++++ (inhibition zone >20 mm)
same,Inhibition zone after detergent / chemical treatment,Micrococcus luteus [14]; Tween 80 1% (w/v),++++ (inhibition zone >20 mm)
same,Inhibition zone after detergent / chemical treatment,Micrococcus luteus [14]; Urea 1% (w/v),++++ (inhibition zone >20 mm)
"Nisin: pore forming lantibiotic (Sigma), produced by Lactococcus lactis (ITSISLCTPGCKTGALMGCNMKTATCHCSIHVSK; not fully specified; Lantibiotic nisin-A; UniProt P13068 24-57, looked up) [reference compound]",Preparation induces inhibitor production in YU10,[1],No
same,"Propidium iodide uptake, geometric mean fluorescence intensity (MFI)","[2]; 20 µg/ml, triplicate",large increase
same,Preparation induces inhibitor production in NU10,[3],No
same,Preparation induces inhibitor production in ATCC11454,[5],Yes
same,Preparation induces inhibitor production in K12,S. salivarius strain K12,No

# — paper PMC3797685, “Enhanced Production, Purification, Characterization and Mechanism of Action of Salivaricin 9 Lantibiotic Produced by Streptococcus salivarius NU10” (PLoS ONE, 2013)
